# Results published in the supplement of paper PMC10307832.
# Columns and labels:
# Test in all cases: relative viability (nuclei count vs DMSO), 5 days (fraction); higher = more cells survive
# AT-7519 + Lapatinib = compound: O=C(NC1CCNCC1)c1n[nH]cc1NC(=O)c1c(Cl)cccc1Cl [AT-7519] + CS(=O)(=O)CCNCc1ccc(-c2ccc3ncnc(Nc4ccc(OCc5cccc(F)c5)c(Cl)c4)c3c2)o1 [Lapatinib] (partner 2 µM)
# Summary of the method: (§1)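 Lung cancer cell lines were seeded in 1536-well plates and dosed by pin tool the next day, with either a single drug or a fixed anchor-drug dose combined with five library-drug doses (not always all listed) spaced in √10 steps. Five days later, one step fixed the cells and stained their nuclei (final 0.05% Triton X-100, 1% formaldehyde, 1 ug/ml Hoechst), and nuclei were counted on 4× images. Relative viability is the nuclei count in treated wells divided by the count in vehicle wells, and each value is the median of duplicate plates.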
# [1] = compound: C1=CC2=C(C=C(C(=C2N=C1)O)N=NC3=CC4=C(C=C3)C=C(C=C4)S(=O)(=O)O)S(=O)(=O)O + N=C(N)NC(=N)NCCc1ccccc1 [Phenformin] (partner 250 µM)
# Summary of the method: as §1
# [2] = compound: C1=CC2=C(C=C(C(=C2N=C1)O)N=NC3=CC4=C(C=C3)C=C(C=C4)S(=O)(=O)O)S(=O)(=O)O + O=C(CCCCCCC(=O)Nc1ccccc1)NO [Vorinostat] (partner 1 µM)
# Summary of the method: as §1
# AT-7519 + Vorinostat = compound: O=C(NC1CCNCC1)c1n[nH]cc1NC(=O)c1c(Cl)cccc1Cl [AT-7519] + O=C(CCCCCCC(=O)Nc1ccccc1)NO [Vorinostat] (partner 1 µM)
# Summary of the method: as §1
Cell Line,relative viability (AT-7519 + Lapatinib; first compound 0.01 µM),relative viability (AT-7519 + Lapatinib; first compound 0.03162 µM),relative viability (AT-7519 + Lapatinib; first compound 0.3162 µM),relative viability (AT-7519 + Lapatinib; first compound 1 µM),relative viability ([1]; first compound 0.08 µM),relative viability ([1]; first compound 0.253 µM),relative viability ([1]; first compound 0.8 µM),relative viability ([1]; first compound 2.53 µM),relative viability ([1]; first compound 8 µM),relative viability ([2]; first compound 0.08 µM),relative viability ([2]; first compound 0.253 µM),relative viability ([2]; first compound 0.8 µM),relative viability ([2]; first compound 2.53 µM),relative viability ([2]; first compound 8 µM),relative viability (AT-7519 + Vorinostat; first compound 0.01 µM),relative viability (AT-7519 + Vorinostat; first compound 0.03162 µM),relative viability (AT-7519 + Vorinostat; first compound 0.3162 µM),relative viability (AT-7519 + Vorinostat; first compound 1 µM)
NCI-H2405,1.04,1.04,1.03,0.719,0.382,0.384,0.371,0.342,0.362,1.01,0.937,0.942,1.02,0.932,1.08,0.988,0.954,0.852
LCLC-97TM1,0.83,0.732,0.805,0.758,0.403,0.491,0.434,0.45,0.384,0.593,0.657,0.632,0.575,0.715,0.955,0.703,0.526,0.379
NCI-H596,1.05,1.11,1.02,0.767,0.749,0.735,0.697,0.841,0.759,0.544,0.645,0.545,0.613,0.649,0.584,0.611,0.471,0.697
NCI-H727,0.641,0.82,0.486,0.235,0.564,0.474,0.502,0.627,0.572,1.13,1.26,1.09,1.12,1.09,1.17,1.08,1.11,0.794
H3255,0.282,0.232,0.294,0.212,0.348,0.377,0.416,0.394,0.421,0.84,0.828,0.803,0.846,0.754,0.794,0.816,0.905,0.787
SK-MES-1,0.455,0.468,0.451,0.392,0.731,0.674,0.672,0.692,0.652,1.16,1.12,0.985,1.06,1.17,1.2,1.1,1.05,0.934
NCI-H1437,0.77,0.71,0.514,0.22,0.257,0.242,0.251,0.303,0.317,0.901,0.857,0.851,0.923,0.841,0.815,0.842,0.929,0.353
LU99A,1.02,1.07,0.898,0.41,0.989,0.796,0.869,0.721,0.631,0.534,0.445,0.63,0.494,0.53,0.481,0.462,0.469,0.448
HCC-827,0.21,0.165,0.162,0.157,0.405,0.335,0.397,0.416,0.45,0.926,0.813,0.826,0.876,0.785,0.928,0.827,0.958,1.02
LK-2,0.816,0.951,0.706,0.706,0.639,0.36,0.303,0.381,0.332,0.308,0.333,0.292,0.263,0.178,0.247,0.258,0.332,0.241
HCC-366,0.868,1.08,0.797,0.243,0.646,0.618,0.585,0.631,0.589,0.442,0.463,0.392,0.338,0.328,0.254,0.325,0.278,0.241
BEN,0.834,0.68,0.781,0.55,0.254,0.274,0.267,0.298,0.234,0.562,0.695,0.526,0.599,0.589,0.6,0.537,0.593,0.579
NCI-H23,0.955,0.975,0.919,0.218,0.869,0.805,0.694,0.786,0.83,0.661,0.627,0.599,0.561,0.633,0.598,0.619,0.513,0.4
NCI-H1395,1.03,1.14,0.802,0.602,0.442,0.405,0.473,0.45,0.452,0.674,0.596,0.554,0.73,0.551,0.82,0.655,0.57,0.565
201T,1.06,1.03,1.07,1.06,0.458,0.426,0.458,0.433,0.306,0.997,1.04,0.961,1.08,0.942,0.975,0.952,1.01,1.12
NCI-H2170,0.289,0.305,0.278,0.249,0.46,0.404,0.417,0.424,0.391,0.975,0.811,0.862,0.914,0.784,0.718,0.867,0.869,0.736
NCI-H460,1.71,0.877,0.0532,0.013,0.609,0.479,0.502,0.486,0.596,0.955,0.66,0.684,0.708,0.71,0.569,0.619,0.674,0.0847
NCI-H661,0.348,0.383,0.385,0.322,0.286,0.291,0.269,0.279,0.312,0.765,0.756,0.783,0.785,0.796,0.792,0.829,0.867,0.261
HCC-15,0.891,0.828,0.692,0.5,0.491,0.481,0.457,0.422,0.444,0.818,0.857,0.779,0.826,0.827,0.857,0.796,0.799,0.565
ABC-1,0.984,0.909,0.986,0.966,0.236,0.245,0.236,0.237,0.245,0.875,1.12,0.943,1.49,0.982,1.16,1.14,1.01,1.28
EPLC-272H,0.979,0.913,0.652,1.07,0.284,0.319,0.292,0.28,0.323,0.453,0.358,0.306,0.876,0.491,0.406,0.328,0.36,0.0395
